Assay results: PubChem BioAssay AID2060503 (Molecular Pharmacology Branch, DTP, NCI, 2025)

system: 817829-284-R-J1-PDC complex spheroids, viability; test: Anticancer human tumor 817829-284-R-J1-PDC patient-derived colon adenocarcinoma cell line growth inhibition [GQUAD]; conditions: curve of first compound; second compound 0.0316 µM
In short: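 Viability of tumor cells grown as complex spheroids with endothelial and stromal cells, exposed to drug combinations. Top concentration at or near clinical Cmax (else 10 microM), diluted in half-log increments.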
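Note: spheroids exposed to agents for 7 days before readout.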

| IC50 [nM] | Structure (SMILES) |
| --- | --- |
| 527 | CC(C)(O)C1CCC(Nc2ccc3ncc(-c4cccc(C(F)(F)F)c4)n3n2)CC1 (stereo unspecified) + Cc1cnc(CNC(=O)c2c(=O)c3ccc(N4CCCN(C)CC4)nc3n3c2sc2ccccc23)cn1 |
| 53.3 | O=C(NO)c1cnc(N2CCN(S(=O)(=O)c3ccc4ccccc4c3)CC2)nc1 + Cc1cnc(CNC(=O)c2c(=O)c3ccc(N4CCCN(C)CC4)nc3n3c2sc2ccccc23)cn1 |

Second part, the compound before the results:

| Structure (SMILES) | IC50 [nM] |
| --- | --- |
| C#Cc1c(F)ccc2cc(O)cc(-c3ncc4c(N5CC6CCC(C5)N6)nc(OCC56CCCN5CC(F)C6)nc4c3F)c12 (stereo unspecified) + Cc1cnc(CNC(=O)c2c(=O)c3ccc(N4CCCN(C)CC4)nc3n3c2sc2ccccc23)cn1 | > 10000 |
| C=CCn1c(=O)c2cnc(Nc3ccc(N4CCN(C)CC4)cc3)nc2n1-c1cccc(C(C)(C)O)n1 + Cc1cnc(CNC(=O)c2c(=O)c3ccc(N4CCCN(C)CC4)nc3n3c2sc2ccccc23)cn1 | 52.9 |
| CCCS(=O)(=O)Nc1ccc(F)c(C(=O)c2c[nH]c3ncc(-c4ccc(Cl)cc4)cc23)c1F + Cc1cnc(CNC(=O)c2c(=O)c3ccc(N4CCCN(C)CC4)nc3n3c2sc2ccccc23)cn1 | 44.8 |
| Cc1[nH]c2ccccc2c1CCNCc1ccc(/C=C/C(=O)NO)cc1 + Cc1cnc(CNC(=O)c2c(=O)c3ccc(N4CCCN(C)CC4)nc3n3c2sc2ccccc23)cn1 | 7.25 |

same assay, conditions: curve of first compound; second compound 0.1 µM

| IC50 [nM] | Structure (SMILES) |
| --- | --- |
| < 31.6 | CC(C)(O)C1CCC(Nc2ccc3ncc(-c4cccc(C(F)(F)F)c4)n3n2)CC1 (stereo unspecified) + Cc1cnc(CNC(=O)c2c(=O)c3ccc(N4CCCN(C)CC4)nc3n3c2sc2ccccc23)cn1 |
| < 31.6 | O=C(NO)c1cnc(N2CCN(S(=O)(=O)c3ccc4ccccc4c3)CC2)nc1 + Cc1cnc(CNC(=O)c2c(=O)c3ccc(N4CCCN(C)CC4)nc3n3c2sc2ccccc23)cn1 |

The remaining lines, values behind:

| Structure (SMILES) | IC50 [nM] |
| --- | --- |
| C#Cc1c(F)ccc2cc(O)cc(-c3ncc4c(N5CC6CCC(C5)N6)nc(OCC56CCCN5CC(F)C6)nc4c3F)c12 (stereo unspecified) + Cc1cnc(CNC(=O)c2c(=O)c3ccc(N4CCCN(C)CC4)nc3n3c2sc2ccccc23)cn1 | < 31.6 |
| C=CCn1c(=O)c2cnc(Nc3ccc(N4CCN(C)CC4)cc3)nc2n1-c1cccc(C(C)(C)O)n1 + Cc1cnc(CNC(=O)c2c(=O)c3ccc(N4CCCN(C)CC4)nc3n3c2sc2ccccc23)cn1 | < 31.6 |
| CCCS(=O)(=O)Nc1ccc(F)c(C(=O)c2c[nH]c3ncc(-c4ccc(Cl)cc4)cc23)c1F + Cc1cnc(CNC(=O)c2c(=O)c3ccc(N4CCCN(C)CC4)nc3n3c2sc2ccccc23)cn1 | < 31.6 |
| Cc1[nH]c2ccccc2c1CCNCc1ccc(/C=C/C(=O)NO)cc1 + Cc1cnc(CNC(=O)c2c(=O)c3ccc(N4CCCN(C)CC4)nc3n3c2sc2ccccc23)cn1 | < 0.999 |

same assay, conditions: curve of first compound; second compound 0.316 µM

| IC50 [nM] | Structure (SMILES) |
| --- | --- |
| < 31.6 | CC(C)(O)C1CCC(Nc2ccc3ncc(-c4cccc(C(F)(F)F)c4)n3n2)CC1 (stereo unspecified) + Cc1cnc(CNC(=O)c2c(=O)c3ccc(N4CCCN(C)CC4)nc3n3c2sc2ccccc23)cn1 |
| < 31.6 | O=C(NO)c1cnc(N2CCN(S(=O)(=O)c3ccc4ccccc4c3)CC2)nc1 + Cc1cnc(CNC(=O)c2c(=O)c3ccc(N4CCCN(C)CC4)nc3n3c2sc2ccccc23)cn1 |

Second part, the compound before the results:

| Structure (SMILES) | IC50 [nM] |
| --- | --- |
| C#Cc1c(F)ccc2cc(O)cc(-c3ncc4c(N5CC6CCC(C5)N6)nc(OCC56CCCN5CC(F)C6)nc4c3F)c12 (stereo unspecified) + Cc1cnc(CNC(=O)c2c(=O)c3ccc(N4CCCN(C)CC4)nc3n3c2sc2ccccc23)cn1 | < 31.6 |
| C=CCn1c(=O)c2cnc(Nc3ccc(N4CCN(C)CC4)cc3)nc2n1-c1cccc(C(C)(C)O)n1 + Cc1cnc(CNC(=O)c2c(=O)c3ccc(N4CCCN(C)CC4)nc3n3c2sc2ccccc23)cn1 | < 31.6 |
| CCCS(=O)(=O)Nc1ccc(F)c(C(=O)c2c[nH]c3ncc(-c4ccc(Cl)cc4)cc23)c1F + Cc1cnc(CNC(=O)c2c(=O)c3ccc(N4CCCN(C)CC4)nc3n3c2sc2ccccc23)cn1 | < 31.6 |
| Cc1[nH]c2ccccc2c1CCNCc1ccc(/C=C/C(=O)NO)cc1 + Cc1cnc(CNC(=O)c2c(=O)c3ccc(N4CCCN(C)CC4)nc3n3c2sc2ccccc23)cn1 | < 0.999 |

same assay, conditions: curve of first compound; second compound 1 µM

| IC50 [nM] | Structure (SMILES) |
| --- | --- |
| < 31.6 | CC(C)(O)C1CCC(Nc2ccc3ncc(-c4cccc(C(F)(F)F)c4)n3n2)CC1 (stereo unspecified) + Cc1cnc(CNC(=O)c2c(=O)c3ccc(N4CCCN(C)CC4)nc3n3c2sc2ccccc23)cn1 |
| < 31.6 | O=C(NO)c1cnc(N2CCN(S(=O)(=O)c3ccc4ccccc4c3)CC2)nc1 + Cc1cnc(CNC(=O)c2c(=O)c3ccc(N4CCCN(C)CC4)nc3n3c2sc2ccccc23)cn1 |

Further lines, the compound ahead of its results:

| Structure (SMILES) | IC50 [nM] |
| --- | --- |
| C#Cc1c(F)ccc2cc(O)cc(-c3ncc4c(N5CC6CCC(C5)N6)nc(OCC56CCCN5CC(F)C6)nc4c3F)c12 (stereo unspecified) + Cc1cnc(CNC(=O)c2c(=O)c3ccc(N4CCCN(C)CC4)nc3n3c2sc2ccccc23)cn1 | < 31.6 |
| C=CCn1c(=O)c2cnc(Nc3ccc(N4CCN(C)CC4)cc3)nc2n1-c1cccc(C(C)(C)O)n1 + Cc1cnc(CNC(=O)c2c(=O)c3ccc(N4CCCN(C)CC4)nc3n3c2sc2ccccc23)cn1 | < 31.6 |
| CCCS(=O)(=O)Nc1ccc(F)c(C(=O)c2c[nH]c3ncc(-c4ccc(Cl)cc4)cc23)c1F + Cc1cnc(CNC(=O)c2c(=O)c3ccc(N4CCCN(C)CC4)nc3n3c2sc2ccccc23)cn1 | < 31.6 |
| Cc1[nH]c2ccccc2c1CCNCc1ccc(/C=C/C(=O)NO)cc1 + Cc1cnc(CNC(=O)c2c(=O)c3ccc(N4CCCN(C)CC4)nc3n3c2sc2ccccc23)cn1 | < 0.999 |

same assay, conditions: curve of first compound; second compound 3.16 µM

| IC50 [nM] | Structure (SMILES) |
| --- | --- |
| < 31.6 | CC(C)(O)C1CCC(Nc2ccc3ncc(-c4cccc(C(F)(F)F)c4)n3n2)CC1 (stereo unspecified) + Cc1cnc(CNC(=O)c2c(=O)c3ccc(N4CCCN(C)CC4)nc3n3c2sc2ccccc23)cn1 |
| < 31.6 | O=C(NO)c1cnc(N2CCN(S(=O)(=O)c3ccc4ccccc4c3)CC2)nc1 + Cc1cnc(CNC(=O)c2c(=O)c3ccc(N4CCCN(C)CC4)nc3n3c2sc2ccccc23)cn1 |

Continued, compound first:

| Structure (SMILES) | IC50 [nM] |
| --- | --- |
| C#Cc1c(F)ccc2cc(O)cc(-c3ncc4c(N5CC6CCC(C5)N6)nc(OCC56CCCN5CC(F)C6)nc4c3F)c12 (stereo unspecified) + Cc1cnc(CNC(=O)c2c(=O)c3ccc(N4CCCN(C)CC4)nc3n3c2sc2ccccc23)cn1 | < 31.6 |
| C=CCn1c(=O)c2cnc(Nc3ccc(N4CCN(C)CC4)cc3)nc2n1-c1cccc(C(C)(C)O)n1 + Cc1cnc(CNC(=O)c2c(=O)c3ccc(N4CCCN(C)CC4)nc3n3c2sc2ccccc23)cn1 | < 31.6 |
| CCCS(=O)(=O)Nc1ccc(F)c(C(=O)c2c[nH]c3ncc(-c4ccc(Cl)cc4)cc23)c1F + Cc1cnc(CNC(=O)c2c(=O)c3ccc(N4CCCN(C)CC4)nc3n3c2sc2ccccc23)cn1 | < 31.6 |
| Cc1[nH]c2ccccc2c1CCNCc1ccc(/C=C/C(=O)NO)cc1 + Cc1cnc(CNC(=O)c2c(=O)c3ccc(N4CCCN(C)CC4)nc3n3c2sc2ccccc23)cn1 | < 0.999 |

same assay, conditions: curve of first compound; second compound 10 µM

| Structure (SMILES) | IC50 [nM] |
| --- | --- |
| C#Cc1c(F)ccc2cc(O)cc(-c3ncc4c(N5CC6CCC(C5)N6)nc(OCC56CCCN5CC(F)C6)nc4c3F)c12 (stereo unspecified) + Cc1cnc(CNC(=O)c2c(=O)c3ccc(N4CCCN(C)CC4)nc3n3c2sc2ccccc23)cn1 | < 31.6 |
